From patent publication US20210221832A1, “SUBSTITUTED PYRIDOINDOLES FOR THE TREATMENT AND PROPHYLAXIS OF BACTERIAL INFECTION” (Hoffmann-La Roche Inc., priority 2018, published 2021) come the findings set out here.

Converted amounts (≈) assume the structure as drawn. Where only a bound is given, the exact number is not on record here.

A short description of series [1]: Plasma stability assay in mouse plasma. The series is classed as in vitro ADME, CD-1 mouse. As to conditions: 10 μM prodrug, 37° C., prodrug remaining at 30 min compared to 0 min. The protocol:
(§1) The degradation of prodrug and formation of active drug of present invention were monitored by current plasma stability assay. The assay is conducted in human plasma (purchased from Bioreclamation, Lot No. BRH1380385) or mouse plasma (prepared in-house using CD-1 mouse purchased from Vital River). Plasma is spiked with the test prodrug (10 μM final concentration) dissolved in DMSO (or water) and incubated at 37° C. Aliquots are removed at 0, 5, 15 and 30 minutes of incubation time, quenched with appropriate volume of internal standard solution (I.S., 0.2 μM of tolbutamide, prepared in ACN and water (1:1, v/v)), according to the mass spectrometer intensity of both analytes. Samples are centrifuged, the supernatant are removed and analyzed by LC-MS/MS. The degradation of prodrug was illustrated by calculation of percent remaining of prodrug at 30 min compared to that at 0 min (Table 2).

The nature of series [2]: Lyophilisation Solubility Assay (LYSA). The series is classed as physicochemical. As to conditions: aqueous buffer, thermodynamic from solid; 0.05 M phosphate buffer, pH 6.5. As to the method: The solubility of compounds of present invention was assessed by LYSA assay. Samples were prepared in duplicate from 10 mM DMSO stock solutions (20 μL) diluted in 30 μL pure DMSO. After evaporation of DMSO with a centrifugal vacuum evaporator, the residue was dissolved in 0.05 M phosphate buffer (150 μL, pH 6.5), which was stirred for one hour and shook for two hours. After one night, the solution was filtered using a microtiter filter plate. Then the filtrate and its 1/10 dilution were analyzed by HPLC-UV. In addition, a four-point calibration curve was prepared from the 10 mM stock solutions and used for the solubility determination of the compounds.

Series [3] can be described thus: Plasma stability assay in human plasma. The series is classed as in vitro ADME. The settings on record: 10 μM prodrug, 37° C., prodrug remaining at 30 min compared to 0 min. The protocol:
as §1

For series [4], the system named is A. baumannii (ATCC17978). As to the kind of experiment: 50% Growth Inhibitory Concentration (IC50) Determination Assay, A. baumannii. The series is classed as cell-based. As to conditions: Acinetobacter baumannii, growth inhibition, Iso-Sensitest broth, OD 600 nm over 16 h. As to the method:
(§2) The in vitro antimicrobial activity of the compounds against S. aureus (ATCC29213), K. pneumoniae (ATCC10031), and A. baumannii (ATCC17978), was determined according to the following procedure: The assay used a 10-points Iso-Sensitest broth medium to measure quantitatively the in vitro activity of the compounds against S. aureus ATCC29213, K. pneumoniae ATCC 10031, and A. baumannii ATCC 17978. Stock compounds in DMSO were serially two-fold diluted (range from 50 to 0.097 μM final concentration) in 384 wells microtiter plates and inoculated with 49 μL the bacterial suspension in Iso-Sensitest broth medium to have a final cell concentration of 5×10^5 CFU/mL in a final volume/well of 50 μL/well. Microtiter plates were incubated at 35±2° C. Bacterial cell growth was determined with the measurement of optical density at λ=600 nm each 20 minutes over a time course of 16 h. Growth inhibition was calculated during the logarithmic growth of the bacterial cells with determination of the concentration inhibiting 50% (IC50) of the growth. The parent compounds of the present invention were tested for their concentration inhibiting 50% (IC50). The data of IC50 over S. aureus (ATCC29213), K. pneumoniae (ATCC10031), and A. baumannii (ATCC17978) are illustrated in Table 6.

Series [5] deals with S. aureus (ATCC29213). Nature of the series: 50% Growth Inhibitory Concentration (IC50) Determination Assay, S. aureus. The series is classed as cell-based. As to conditions: Staphylococcus aureus, growth inhibition, Iso-Sensitest broth, OD 600 nm over 16 h. As to the method: as §2
Series [6] relates to K. pneumoniae (ATCC10031). Nature of the series: 50% Growth Inhibitory Concentration (IC50) Determination Assay, K. pneumoniae. The series is classed as cell-based. The settings on record: Klebsiella pneumoniae, growth inhibition, Iso-Sensitest broth, OD 600 nm over 16 h. The protocol: as §2

Take `CN1C[C@@H]2CCN(c3c(-c4cnc5c(c4)c(=O)c(C(=O)O)cn5C)cnc4[nH]c5c(N(C)C(=O)OCOC(=O)/C=C/C(=O)O)cc(F)c(C#N)c5c34)[C@@H]2C1` [Example 1.02, 6-[5-Cyano-6-fluoro-8-[methyl-[[(E)-3-carboxyprop-2-enoyl]oxymethoxycarbonyl]amino]-4-[(3aS,6aS)-5-methyl-2,3,3a,4,6,6a-hexahydropyrrolo[2,3-c]pyrrol-1-yl]-9H-pyrido[2,3-b]indol-3-yl]-1-methyl-4-oxo-1,8-naphthyridine-3-carboxylic acid]: the “Percent Remaining (%) M” value in series [1] was found to be 70.2%. Besides, the solubility – broadly, the dissolved amount per volume that the medium holds – in series [2] was above 895 µg/mL. For the same compound, in series [3], the “Percent Remaining (%) H” value turned out to be 88.2%.

Turning to `CNc1cc(F)c(C#N)c2c1[nH]c1ncc(-c3cnc4c(c3)c(=O)c(C(=O)O)cn4C)c(N3CC[C@H]4CN(C)C[C@H]43)c12` [Example 1.03D, 6-[5-cyano-6-fluoro-8-(methylamino)-4-[(3aS,6aS)-5-methyl-2,3,3a,4,6,6a-hexahydropyrrolo[2,3-c]pyrrol-1-yl]-9H-pyrido[2,3-b]indol-3-yl]-1-methyl-4-oxo-1,8-naphthyridine-3-carboxylic acid], the values for the half-maximal inhibitory concentration (IC50) in series [4], in series [5] and in series [6] were 45 nM, below 98 nM and below 98 nM, respectively. Moreover, in series [2], the solubility is 194 µg/mL (≈ 342 µM).

As to `CNc1cc(F)c(C#N)c2c3c(N4CC[C@H]5CN(C)C[C@H]54)c(-c4cnc5c(c4)c(=O)c(C(=O)O)cn5C)cn(COP(=O)(O)O)c-3nc12` [Example 1.04, 6-[5-Cyano-6-fluoro-8-(methylamino)-1-(phosphonooxymethyl)-4-[(3aS,6aS)-5-methyl-2,3,3a,4,6,6a-hexahydropyrrolo[2,3-c]pyrrol-1-yl]pyrido[2,3-b]indol-3-yl]-1-methyl-4-oxo-1,8-naphthyridine-3-carboxylic acid], in series [1], the “Percent Remaining (%) M” value is listed as 79.1%. Moreover, in series [2], the solubility is above 950 µg/mL. Moreover, the “Percent Remaining (%) H” value in series [3] was determined as 95.9%.

On to `CNc1cc(F)c(C#N)c2c1[nH]c1ncc(-c3cnc4c(c3)c(=O)c(C(=O)OCCOC(=O)[C@@H](N)C(C)C)cn4C)c(N3CC[C@H]4CN(C)C[C@H]43)c12` [Example 1.08, 2-[(2S)-2-Amino-3-methyl-butanoyl]oxyethyl 6-[5-cyano-6-fluoro-8-(methylamino)-4-[(3aS,6aS)-5-methyl-2,3,3a,4,6,6a-hexahydropyrrolo[2,3-c]pyrrol-1-yl]-9H-pyrido[2,3-b]indol-3-yl]-1-methyl-4-oxo-1,8-naphthyridine-3-carboxylate], for which the “Percent Remaining (%) M” value in series [1] came to 1.3%. This compound also gave a solubility in series [2] of 480 µg/mL (≈ 676 µM). The “Percent Remaining (%) H” value in series [3] is on record as 22.3%.

In the case of `CN1C[C@H]2CCN(c3c(-c4cnc5c(c4)c(=O)c(C(=O)O)cn5C)cnc4[nH]c5c(N(C)C(=O)OCOC(=O)/C=C/C(=O)O)cc(F)c(F)c5c34)[C@H]2C1` [Example 1.21, 6-[5,6-Difluoro-8-[methyl-[[(E)-3-carboxyprop-2-enoyl]oxymethoxycarbonyl]amino]-4-[(3aR,6aR)-5-methyl-2,3,3a,4,6,6a-hexahydropyrrolo[2,3-c]pyrrol-1-yl]-9H-pyrido[2,3-b]indol-3-yl]-1-methyl-4-oxo-1,8-naphthyridine-3-carboxylic acid], in series [1], the “Percent Remaining (%) M” value came to 56.0%. In series [3], the “Percent Remaining (%) H” value came to 88.7%.

Turning to `CNc1cc(F)c(F)c2c1[nH]c1ncc(-c3cnc4c(c3)c(=O)c(C(=O)O)cn4C)c(N3CC[C@H]4CN(C)C[C@H]43)c12` [Example 1.26E, 6-[5,6-difluoro-8-(methylamino)-4-[(3aS,6aS)-5-methyl-2,3,3a,4,6,6a-hexahydropyrrolo[2,3-c]pyrrol-1-yl]-9H-pyrido[2,3-b]indol-3-yl]-1-methyl-4-oxo-1,8-naphthyridine-3-carboxylic acid], the IC50 (commonly the concentration at which inhibition is half-maximal) is 39 nM in series [4], below 98 nM in series [5] and below 98 nM in series [6]. In series [2], this compound displayed a solubility of 137 µg/mL (≈ 245 µM).

`CNc1cc(F)c(F)c2c1[nH]c1ncc(-c3ccc4ccc(C(=O)O)c(=O)n4c3)c(N3CC[C@H]4CN(C)C[C@H]43)c12` [Example 1.34D, 7-[5,6-difluoro-8-(methylamino)-4-[(3aS,6aS)-5-methyl-2,3,3a,4,6,6a-hexahydropyrrolo[2,3-c]pyrrol-1-yl]-9H-pyrido[2,3-b]indol-3-yl]-4-oxo-quinolizine-3-carboxylic acid]: the IC50 in series [4], in series [5] and in series [6] was below 98 nM throughout. The compound further returned a solubility in series [2] of 54 µg/mL (≈ 99.2 µM).

For the compound `CNc1cc(F)c(F)c2c1[nH]c1ncc(-c3ccc4ccc(C(=O)OC(C)OC(=O)OC(C)C)c(=O)n4c3)c(N3CC[C@H]4CN(C)C[C@H]43)c12` (stereo partly drawn) [Example 1.39, 1-Isopropoxycarbonyloxyethyl 7-[5,6-difluoro-8-(methylamino)-4-[(3aS,6aS)-5-methyl-2,3,3a,4,6,6a-hexahydropyrrolo[2,3-c]pyrrol-1-yl]-9H-pyrido[2,3-b]indol-3-yl]-4-oxo-quinolizine-3-carboxylate], the “Percent Remaining (%) M” value in series [1] was found to be 0.1%. Further, the “Percent Remaining (%) H” value in series [3] was determined as 98.4%.
